Measurements taken from ChEMBL document CHEMBL5727253, “Tricyclic compounds and compositions as kinase inhibitors” (2019).
Where “and” joins values, the source holds several entries; their conditions need not be identical. Equal values may be shown once.

experiment: Biological Assays: The activity of a compound according to the present invention can be assessed by well-known in vitro & in vivo methods. […] CRAF cDNA was subcloned as full length protein, with Y340E and Y341E activating mutations, into a baculovirus expression vector for Sf9 insect cell expression. h14-3-3 zeta cDNA was subcloned into a baculovirus expression vector for SF9 insect cell expression. Sf9 cells co-expressing both proteins were lysed and subjected to immobilized nickel chromatography and eluted with Imidazole. A second column (StrepII binding column) was used and eluted with desthiobiotin. Protein Tags were removed using Prescission enzyme and the protein was further purified using a flowthrough step to remove tags.C-Raf TR refers to a truncated C-Raf protein, a Δ1-324 deletion mutant. C-Raf FL refers to the full-length C-Raf protein.Full length MEK1 with an inactivating K97R ATP binding site mutation is utilized as a RAF substrate. The MEK1 cDNA was subcloned with an N-terminal (his)6 tag into a vector for E. Coli expression. The MEK1 substrate was purified from E. Coli lysate by nickel affinity chromatography followed by anion exchange. The final MEK1 preparation was biotinylated (Pierce EZ-Link Sulfo-NHS-LC-Biotin) and concentrated.Assay Materials: Assay buffer is 50 mM Tris, pH 7.5, 15 mM MgCl2, 0.01% Bovine Serum Albumin (BSA) and 1 mM dithiothreitol (DTT); Stop buffer is 60 mM ethylenediaminetetraacetic acid (EDTA) and 0.01% Tween® 20; b-Raf (V600E), active; biotinylated Mek, kinase dead; Alpha Screen detection kit (available from PerkinElmer™, #6760617R); Anti phospho-MEK1/2 (available from Cell Signaling Technology, Inc. #9121); 384 well low volume assay plates (White Greiner® plates).Assay conditions: b-Raf (V600E) approximately 4 pM; c-Raf approximately 4 nM; biotinylated Mek, kinase dead approximately 10 nM; ATP 10 μM for BRAF (V600E) and 1 μM for CRAF; Pre-incubation time with compounds 60 minutes at room temperature; Reaction time 1 or 3 hours at room temperature.Assay protocol: Raf and biotinylated Mek (kinase dead) were combined at 2× final concentrations in assay buffer (50 mM Tris, pH 7.5, 15 mM MgCl2, 0.01% BSA and 1 mM DTT) and dispensed […] per well in assay plates (Greiner white 384 well assay plates #781207) containing […] of 40× of a Raf kinase inhibitor test compound diluted in 100% DMSO. The plate was incubated for 60 minutes at room temperature. The Raf kinase activity reaction was started by the addition of […] per well of 2×ATP diluted in assay buffer. After 3 hours (b-Raf(V600E)) or 1 hour (c-Raf). The reactions were stopped and the phosphorylated product was measured using a rabbit anti-p-MEK (Cell Signaling, #9121) antibody and the Alpha Screen IgG (ProteinA) detection Kit (PerkinElmer #6760617R), by the addition of […] to the well of a mixture of the antibody (1:2000 dilution) and detection beads (1:2000 dilution of both beads) in Stop/bead buffer (25 mM EDTA, 50 mM Tris, pH 7.5, 0.01% Tween20). The additions were carried out under dark conditions to protect the detection beads from light. A lid was placed on top of the plate and incubated for 1 hour at room temperature, after which the luminescence was read on a PerkinElmer Envision instrument.; type: biochemical

Row | SMILES | IC50
1 | CC[C@H]1Cc2nnc(-c3cc(NC(=O)c4ccnc(C(C)(F)F)c4)ccc3C)cc2N2CCOC[C@H]12 | 0.2 nM
2 | CC[C@H]1Cc2nnc(-c3cc(NC(=O)c4ccnc(C(C)(F)F)c4)ccc3C)cc2N2CCOC[C@@H]12 | 0.1 nM
3 | CC[C@@H]1Cc2nnc(-c3cc(NC(=O)c4ccnc(C(C)(F)F)c4)ccc3C)cc2N2CCOC[C@H]12 | 0.1 nM
4 | Cc1ccc(NC(=O)c2ccnc(C(C)(F)F)c2)cc1-c1ccc2c(c1)N1CCOC[C@H]1[C@@](C)(N)C2 | 0.61 nM
5 | Cc1ncc(NC(=O)c2cccc(C(F)(F)F)c2)cc1-c1cnc2c(c1)N1CCOC[C@H]1[C@](F)(CO)C2 | 1.1 nM
6 | CNC(=O)C1Cc2ccc(-c3cc(NC(=O)c4ccnc(C(F)(F)F)c4)ccc3C)cc2N2CCOC[C@@H]12 (some centres not stated) | 0.032 nM and 0.027 nM
7 | Cc1ccc(NC(=O)c2ccnc(C(C)(F)F)c2)cc1-c1ccc2c(c1)N1CCOC[C@@H]1[C@](C)(N)C2 | 0.025 nM
8 | CNC(=O)C1Cc2ccc(-c3cc(NC(=O)c4ccnc(C(F)(F)F)c4)ccc3C)cc2N2CCOC[C@H]12 (some centres not stated) | 0.028 nM and 0.014 nM
9 | CNC(=O)[C@@H]1Cc2ccc(-c3cc(NC(=O)c4ccnc(C(F)(F)F)c4)ccc3C)cc2N2CCOC[C@H]12 | 0.13 nM
10 | Cc1ccc(NC(=O)c2ccnc(C(F)(F)F)c2)cc1-c1cnc2c(c1)N1CCOCC1[C@H](CO)C2 (mixture of isomers) | 0.005 nM
11 | Cc1ccc(NC(=O)c2ccnc(C(F)(F)F)c2)cc1-c1cnc2c(c1)N1CCOCC1C(CS(C)(=O)=O)C2 (racemic) | 0.038 nM
12 | Cc1ncc(NC(=O)c2cccc(C(F)(F)F)c2)cc1-c1ccc2c(c1)N1CCOCC1CC2O (racemic) | 0.01 nM
